Results from US11629143B2, “HipK4 inhibitors and uses thereof” (Vibliome Therapeutics, LLC, priority 2020, dated 2023).

Tests used:
Test in all cases: Kinase panel (mobility shift)
Assay type in all cases: biochemical
MUSK = target: T1, MUSK (Homo sapiens, UniProt O15146)
T1 sequence (O15146 24-869): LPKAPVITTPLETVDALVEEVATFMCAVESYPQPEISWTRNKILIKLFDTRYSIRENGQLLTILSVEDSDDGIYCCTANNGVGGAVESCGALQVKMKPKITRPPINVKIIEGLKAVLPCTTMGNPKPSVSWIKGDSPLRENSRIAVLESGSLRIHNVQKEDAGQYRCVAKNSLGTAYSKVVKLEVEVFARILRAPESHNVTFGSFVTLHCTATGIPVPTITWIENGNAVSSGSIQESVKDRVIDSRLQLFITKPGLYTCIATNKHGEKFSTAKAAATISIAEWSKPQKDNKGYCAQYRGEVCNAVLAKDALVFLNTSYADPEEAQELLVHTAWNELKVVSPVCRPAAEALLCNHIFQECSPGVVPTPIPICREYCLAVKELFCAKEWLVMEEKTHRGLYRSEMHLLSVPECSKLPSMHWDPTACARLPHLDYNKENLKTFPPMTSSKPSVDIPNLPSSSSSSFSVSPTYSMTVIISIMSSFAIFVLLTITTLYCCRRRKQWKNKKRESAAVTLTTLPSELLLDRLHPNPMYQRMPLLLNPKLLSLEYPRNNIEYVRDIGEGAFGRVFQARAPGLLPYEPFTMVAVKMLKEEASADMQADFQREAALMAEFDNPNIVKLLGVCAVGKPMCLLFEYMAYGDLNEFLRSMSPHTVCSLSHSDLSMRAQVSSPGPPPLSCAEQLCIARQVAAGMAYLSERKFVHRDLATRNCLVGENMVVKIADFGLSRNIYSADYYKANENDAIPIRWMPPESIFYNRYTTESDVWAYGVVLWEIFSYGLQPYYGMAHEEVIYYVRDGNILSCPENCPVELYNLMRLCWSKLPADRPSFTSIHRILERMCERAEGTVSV
Procedure: (§1) The disclosed compounds were tested for activity against a panel of 299 kinases. The target enzyme was incubated with fluorescently labeled substrate and test compounds in a standardized reaction mixture in 384 well plates. Upon termination of the reaction, samples were introduced onto microfluidic chips. The samples migrated through channels in the chips and product and substrate were separated based on the difference in their charge (electrophoretic mobility shift). Enzyme activity was measured by direct comparison of the fluorescence in the product and substrate peaks. […] In the tables A=95% or greater at 5 um, B=90%-94% at 5 um, and C=80%-89% at 5 um. [note to draft: we included category D for 50-79 and category E is less than 50%. Feel free to remove if not needed)

PDGFR-a = PDGFR-a (Homo sapiens, UniProt P16234)
Procedure: as §1

SRC = SRC (Homo sapiens, UniProt P12931)
Procedure: as §1

TRKB = TRKB (Homo sapiens, UniProt Q16620)
Procedure: as §1

EPH-A4 = EPH-A4 (Homo sapiens, UniProt P54764)
Procedure: as §1

LCK = LCK (Homo sapiens, UniProt P06239)
Procedure: as §1

MER = target: T2, MER (Homo sapiens, UniProt Q12866)
T2 sequence (Q12866 21-999): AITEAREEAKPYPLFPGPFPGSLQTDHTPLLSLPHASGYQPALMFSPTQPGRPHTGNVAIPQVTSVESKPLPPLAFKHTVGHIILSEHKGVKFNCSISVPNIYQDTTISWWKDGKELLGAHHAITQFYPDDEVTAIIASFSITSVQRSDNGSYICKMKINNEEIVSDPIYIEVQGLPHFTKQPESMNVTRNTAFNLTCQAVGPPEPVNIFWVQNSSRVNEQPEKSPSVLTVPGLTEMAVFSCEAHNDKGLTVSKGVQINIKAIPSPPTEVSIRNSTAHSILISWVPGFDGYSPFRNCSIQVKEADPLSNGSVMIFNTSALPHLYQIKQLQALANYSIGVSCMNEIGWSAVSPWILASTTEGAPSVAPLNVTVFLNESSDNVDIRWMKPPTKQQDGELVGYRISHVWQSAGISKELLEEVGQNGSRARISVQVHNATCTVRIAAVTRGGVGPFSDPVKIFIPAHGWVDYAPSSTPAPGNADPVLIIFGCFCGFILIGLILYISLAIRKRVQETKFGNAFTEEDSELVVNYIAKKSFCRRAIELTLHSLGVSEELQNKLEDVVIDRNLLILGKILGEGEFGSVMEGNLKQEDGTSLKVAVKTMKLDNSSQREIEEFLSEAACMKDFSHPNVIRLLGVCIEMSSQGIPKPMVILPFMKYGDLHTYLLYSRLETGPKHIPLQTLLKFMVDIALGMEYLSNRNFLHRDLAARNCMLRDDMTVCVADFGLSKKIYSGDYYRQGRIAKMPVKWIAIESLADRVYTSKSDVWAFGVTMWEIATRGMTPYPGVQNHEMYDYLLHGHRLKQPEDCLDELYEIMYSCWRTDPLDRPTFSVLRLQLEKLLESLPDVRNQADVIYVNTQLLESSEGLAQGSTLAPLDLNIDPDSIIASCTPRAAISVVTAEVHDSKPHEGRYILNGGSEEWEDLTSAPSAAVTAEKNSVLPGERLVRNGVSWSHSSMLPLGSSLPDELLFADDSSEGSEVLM
Procedure: as §1

Measured: inhibition at 5 µM

Sequence of EPH-A4 (P54764 20-986, species assumed): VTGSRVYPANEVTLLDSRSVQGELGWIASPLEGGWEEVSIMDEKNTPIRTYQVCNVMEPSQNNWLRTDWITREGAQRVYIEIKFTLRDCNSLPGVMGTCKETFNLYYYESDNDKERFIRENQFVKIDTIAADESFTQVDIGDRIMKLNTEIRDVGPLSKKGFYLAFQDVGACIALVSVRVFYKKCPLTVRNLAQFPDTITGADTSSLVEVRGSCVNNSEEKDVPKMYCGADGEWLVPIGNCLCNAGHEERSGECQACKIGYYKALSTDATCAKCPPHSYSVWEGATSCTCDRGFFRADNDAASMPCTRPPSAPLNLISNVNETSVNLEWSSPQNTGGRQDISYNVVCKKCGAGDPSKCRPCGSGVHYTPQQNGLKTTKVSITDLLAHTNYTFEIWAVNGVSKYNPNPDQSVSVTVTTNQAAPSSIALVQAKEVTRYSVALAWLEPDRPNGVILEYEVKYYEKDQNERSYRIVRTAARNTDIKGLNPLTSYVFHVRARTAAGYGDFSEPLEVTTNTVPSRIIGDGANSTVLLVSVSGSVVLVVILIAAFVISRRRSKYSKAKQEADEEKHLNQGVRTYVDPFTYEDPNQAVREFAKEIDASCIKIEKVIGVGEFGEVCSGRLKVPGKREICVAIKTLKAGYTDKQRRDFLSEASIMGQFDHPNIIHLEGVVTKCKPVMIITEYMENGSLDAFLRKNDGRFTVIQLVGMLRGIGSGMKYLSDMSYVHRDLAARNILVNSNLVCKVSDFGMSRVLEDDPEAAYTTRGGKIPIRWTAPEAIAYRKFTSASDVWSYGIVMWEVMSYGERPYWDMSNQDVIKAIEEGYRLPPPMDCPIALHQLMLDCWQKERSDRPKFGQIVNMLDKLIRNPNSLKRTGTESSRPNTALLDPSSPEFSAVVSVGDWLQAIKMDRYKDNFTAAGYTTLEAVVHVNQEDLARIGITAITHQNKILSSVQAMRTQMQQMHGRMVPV
Sequence of SRC (P12931 whole entry, species assumed): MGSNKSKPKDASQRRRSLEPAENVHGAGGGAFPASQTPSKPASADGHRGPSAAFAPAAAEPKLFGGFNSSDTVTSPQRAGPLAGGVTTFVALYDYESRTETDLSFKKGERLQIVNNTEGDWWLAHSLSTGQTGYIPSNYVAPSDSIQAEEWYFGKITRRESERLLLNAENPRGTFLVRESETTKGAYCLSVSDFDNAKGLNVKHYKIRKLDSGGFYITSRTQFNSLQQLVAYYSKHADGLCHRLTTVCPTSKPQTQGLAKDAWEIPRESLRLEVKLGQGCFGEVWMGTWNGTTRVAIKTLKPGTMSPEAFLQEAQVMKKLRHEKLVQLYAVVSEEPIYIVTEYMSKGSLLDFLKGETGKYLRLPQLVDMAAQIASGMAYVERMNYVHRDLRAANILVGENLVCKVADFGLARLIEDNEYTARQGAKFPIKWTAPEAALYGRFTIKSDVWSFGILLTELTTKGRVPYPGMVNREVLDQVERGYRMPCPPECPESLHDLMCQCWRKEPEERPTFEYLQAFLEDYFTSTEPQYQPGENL
Sequence of LCK (P06239 whole entry, species assumed): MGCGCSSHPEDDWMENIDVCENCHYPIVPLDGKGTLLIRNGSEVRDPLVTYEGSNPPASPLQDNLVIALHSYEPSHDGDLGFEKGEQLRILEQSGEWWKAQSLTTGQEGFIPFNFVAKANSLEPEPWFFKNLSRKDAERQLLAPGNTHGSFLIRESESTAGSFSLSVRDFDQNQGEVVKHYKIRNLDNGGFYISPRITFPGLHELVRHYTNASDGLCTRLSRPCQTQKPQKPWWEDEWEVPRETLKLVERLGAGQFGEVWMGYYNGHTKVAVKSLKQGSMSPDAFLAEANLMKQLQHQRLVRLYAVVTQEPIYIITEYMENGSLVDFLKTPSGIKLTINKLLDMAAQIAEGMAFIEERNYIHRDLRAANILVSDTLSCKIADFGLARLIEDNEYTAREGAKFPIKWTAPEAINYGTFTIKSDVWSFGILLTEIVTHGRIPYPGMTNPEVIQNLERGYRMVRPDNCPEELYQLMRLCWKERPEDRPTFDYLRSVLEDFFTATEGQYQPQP
Sequence of PDGFR-a (P16234 24-1089, species assumed): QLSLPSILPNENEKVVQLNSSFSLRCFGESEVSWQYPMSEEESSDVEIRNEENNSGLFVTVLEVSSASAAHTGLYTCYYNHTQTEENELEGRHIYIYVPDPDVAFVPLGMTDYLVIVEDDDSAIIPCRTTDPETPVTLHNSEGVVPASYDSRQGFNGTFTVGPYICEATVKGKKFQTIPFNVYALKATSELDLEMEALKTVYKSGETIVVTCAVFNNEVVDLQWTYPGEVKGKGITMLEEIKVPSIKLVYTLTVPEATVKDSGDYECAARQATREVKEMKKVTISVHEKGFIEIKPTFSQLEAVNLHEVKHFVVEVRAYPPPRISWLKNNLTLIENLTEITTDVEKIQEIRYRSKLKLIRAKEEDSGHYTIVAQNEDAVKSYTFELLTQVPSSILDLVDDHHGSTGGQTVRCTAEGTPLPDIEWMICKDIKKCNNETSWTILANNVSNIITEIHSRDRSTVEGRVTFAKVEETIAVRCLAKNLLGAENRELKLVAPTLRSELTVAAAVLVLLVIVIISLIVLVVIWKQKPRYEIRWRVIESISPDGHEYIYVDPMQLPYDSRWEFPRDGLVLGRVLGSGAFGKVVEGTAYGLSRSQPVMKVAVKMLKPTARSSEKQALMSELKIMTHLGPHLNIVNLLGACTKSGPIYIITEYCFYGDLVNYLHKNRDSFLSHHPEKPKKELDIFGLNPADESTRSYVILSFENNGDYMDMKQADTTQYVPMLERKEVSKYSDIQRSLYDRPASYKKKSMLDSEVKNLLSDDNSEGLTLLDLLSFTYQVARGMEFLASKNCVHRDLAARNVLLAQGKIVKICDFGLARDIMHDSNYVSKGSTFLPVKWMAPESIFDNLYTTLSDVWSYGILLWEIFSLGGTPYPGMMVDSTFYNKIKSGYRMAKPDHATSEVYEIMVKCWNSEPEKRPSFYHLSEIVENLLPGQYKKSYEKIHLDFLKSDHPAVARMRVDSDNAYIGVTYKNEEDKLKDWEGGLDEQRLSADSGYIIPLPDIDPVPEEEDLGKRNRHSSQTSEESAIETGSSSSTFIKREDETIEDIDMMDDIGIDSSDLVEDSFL
Sequence of TRKB (Q16620 32-822, species assumed): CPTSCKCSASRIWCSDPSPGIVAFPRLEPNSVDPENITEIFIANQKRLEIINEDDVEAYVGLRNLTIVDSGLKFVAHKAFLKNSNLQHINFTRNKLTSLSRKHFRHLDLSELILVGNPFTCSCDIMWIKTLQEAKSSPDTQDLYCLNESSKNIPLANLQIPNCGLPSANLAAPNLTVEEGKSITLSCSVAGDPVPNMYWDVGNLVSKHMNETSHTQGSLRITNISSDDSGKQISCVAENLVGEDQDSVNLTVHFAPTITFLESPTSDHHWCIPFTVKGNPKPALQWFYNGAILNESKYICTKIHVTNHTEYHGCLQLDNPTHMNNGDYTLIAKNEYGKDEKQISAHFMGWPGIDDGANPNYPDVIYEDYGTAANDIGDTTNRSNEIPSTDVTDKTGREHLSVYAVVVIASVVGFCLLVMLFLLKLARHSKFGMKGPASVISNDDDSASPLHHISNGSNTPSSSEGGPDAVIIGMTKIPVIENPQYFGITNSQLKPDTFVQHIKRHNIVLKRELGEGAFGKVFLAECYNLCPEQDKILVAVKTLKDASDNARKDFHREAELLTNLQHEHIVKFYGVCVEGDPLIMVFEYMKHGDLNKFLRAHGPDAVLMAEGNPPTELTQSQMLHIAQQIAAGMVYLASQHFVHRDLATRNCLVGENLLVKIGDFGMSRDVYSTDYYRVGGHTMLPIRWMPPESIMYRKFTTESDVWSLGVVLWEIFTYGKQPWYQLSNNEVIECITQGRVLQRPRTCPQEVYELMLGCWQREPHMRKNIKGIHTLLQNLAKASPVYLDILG

CSc1nc(C(=O)Nc2ccc(Oc3ccnc(C(=O)NC4CNC4)c3)c(F)c2)c(-c2ccc(F)cc2)o1 [Compound 29]
50 to 79%: EPH-A4 | MER
< 50%: all other assays above

[2H]C([2H])([2H])NC(=O)c1cc(Oc2ccc(NC(=O)c3nc(SC)oc3-c3ccc(F)s3)cc2F)ccn1 [Compound 35]
< 50%: all assays above

CNC(=O)c1cc(Oc2ccc(NC(=O)c3nc(SC)oc3-c3ccc(F)s3)cc2F)ccn1 [Compound 16]
< 50%: all assays above

CSc1nc(C(=O)Nc2ccc(Oc3cc4cnn(C)c4cc3Br)c(F)c2)c(-c2ccc(F)cc2)o1 [Compound 2]
50 to 79%: EPH-A4
< 50%: all other assays above

CNC(=O)c1ccc(Oc2ccc(NC(=O)c3nc(Cl)oc3-c3ccc(F)cc3)c(F)c2)cn1 [Compound 36]
< 50%: all assays above

CNC(=O)c1cc(Oc2ccc(NC(=O)c3nc(NC)oc3-c3ccc(F)cc3)cc2F)ccn1 [Compound 14]
< 50%: PDGFR-a | SRC
90 to 94%: TRKB
50 to 79%: all other assays above

CNC(=O)c1cc(Oc2ccc(NC(=O)c3nc(OC4CC4)oc3-c3ccc(F)cc3)cc2F)ccn1 [Compound 32]
50 to 79%: SRC | EPH-A4
80 to 89%: LCK | MER
< 50%: all other assays above

CSc1nc(C(=O)Nc2ccc(Oc3ccnc(C(=O)NCC(F)(F)F)c3)c(F)c2)c(-c2ccc(F)cc2)o1 [Compound 40]
< 50%: all assays above

CSc1nc(C(=O)Nc2ccc(Oc3ccnc(C(=O)NC4CCN(C)CC4)c3)c(F)c2)c(-c2ccc(F)cc2)o1 [Compound 42]
< 50%: all assays above

CNC(=O)c1cc(Oc2ccc(NC(=O)c3nc(S(C)(=O)=O)sc3-c3ccc(F)cc3)cc2F)ccn1 [Compound 13]
80 to 89%: MER
< 50%: SRC
90 to 94%: LCK
50 to 79%: all other assays above

CSc1nc(C(=O)Nc2ccc(Oc3ccnc(C(=O)NCCN(C)C)c3)c(F)c2)c(-c2ccc(F)cc2)o1 [Compound 41]
50 to 79%: EPH-A4 | LCK | MER
< 50%: all other assays above

CNC(=O)c1cc(Oc2ccc(NC(=O)c3nc(SC)oc3-c3ccc(F)cc3F)cc2F)ccn1 [Compound 12]
80 to 89%: TRKB | MER
< 50%: PDGFR-a
≥ 95%: LCK
50 to 79%: all other assays above

CNC(=O)c1cc(Oc2ccc(NC(=O)c3nc(OC)oc3-c3ccc(F)c(F)c3)cc2F)ccn1 [Compound 24]
50 to 79%: LCK
< 50%: all other assays above

CNC(=O)c1cc(Oc2c(F)cc(NC(=O)c3nc(NC)sc3-c3ccc(F)cc3)cc2F)ccn1 [Compound 19]
< 50%: MUSK | SRC | TRKB
50 to 79%: all other assays above

COc1nc(C(=O)Nc2ccc(Oc3ccnc(C(=O)NCC(F)(F)F)c3)c(F)c2)c(-c2ccc(F)cc2)o1 [Compound 43]
< 50%: all assays above

CNC(=O)c1cc(Oc2ccc(NC(=O)c3nc(SC)oc3-c3ccc(F)cc3F)cc2)ccn1 [Compound 6]
90 to 94%: TRKB | MER
80 to 89%: SRC
≥ 95%: LCK
< 50%: all other assays above

CNC(=O)c1cc(Oc2ccc(NC(=O)c3nc(SC)oc3-c3ccc(F)cc3Cl)cc2)ccn1 [Compound 3]
≥ 95%: LCK
90 to 94%: MER
50 to 79%: MUSK | PDGFR-a
< 50%: EPH-A4
80 to 89%: SRC | TRKB

CSc1nc(C(=O)Nc2ccc(Oc3ccnc(C(=O)NC4COC4)c3)c(F)c2)c(-c2ccc(F)c(F)c2)o1 [Compound 37]
< 50%: all assays above

CNC(=O)c1cc(Oc2ccc(NC(=O)c3nc(OCC(F)(F)F)oc3-c3ccc(F)cc3)cc2F)ccn1 [Compound 38]
80 to 89%: MER
50 to 79%: SRC | LCK
< 50%: all other assays above
